Measurements: publication PMC9504587, “Cytotoxic Drimane-Type Sesquiterpenes from Co-Culture of the Marine-Derived Fungi Aspergillus carneus KMM 4638 and Beauveria felina (=Isaria felina) KMM 4639” (Marine Drugs, 2022)
In brackets after ≈: the same amount, converted by molar mass. Like-named read-outs stand apart in the source and are kept apart here.

Key:
[1] = system: normal rat cardiomyocyte H9c2 cell line; test: MTT cytotoxicity assay, H9c2 cells; format: cell-based; conditions: 24 h incubation, mean ± SEM
Description: (§1) PC-3, MCF-7, C6, and H9c2 cells were cultured in DMEM medium (Biolot, St. Petersburg, Russia) containing 10% fetal bovine serum (Biolot, St. Petersburg, Russia) and 1% penicillin/streptomycin (Biolot, St. Petersburg, Russia) at 37 °C in a humidified atmosphere with 5% (v/v) CO2. The Raji cells were cultured in RPMI-1640 medium (Biolot, St. Petersburg, Russia) containing 10% fetal bovine serum (Biolot, St. Petersburg, Russia) and 1% penicillin/streptomycin (Biolot, St. Petersburg, Russia) under the same conditions.
(§2) Initially, cells were incubated in culture flasks until subconfluent (~80%). For testing, the cells were seeded at concentrations of 5 × 10^3 cells/well (PC-3, MCF-7, Raji, and C6 cells) or 3 × 10^3 cells/well (H9c2 cells), and experiments were started after 24 h.
(§3) The in vitro cytotoxicity of individual substances was determined by the MTT method (3-(4,5-dimethylthiazol-2-yl)-2,5-diphenyltetrazolium bromide), according to the manufacturer’s instructions (Sigma-Aldrich, St. Louis, MO, USA).
(§4) Investigated compounds were dissolved in DMSO at a concentration of 10 mM.
(§5) The cells were treated with the investigated compounds for 24 h or 48 h, and MTT reagent was added to each well of the plate. The vehicle with DMSO at a concentration of 1% was used as a control. The absorbance of formed formazan was measured at λ = 570 nm using a Multiskan FC microplate photometer (Thermo Scientific, Waltham, MA, USA) and expressed in optical units (o.u.). The results are presented as % of viable cells relative to vehicle, and 50% inhibition concentration of cell viability (IC50) was calculated.

rat glioblastoma C6 = test: MTT cytotoxicity assay, C6 cells; format: cell-based; conditions: 24 h incubation, mean ± SEM
Description: as §1, §2, §3, §4, §5

[2] = system: human prostate cancer PC-3; test: MTT cytotoxicity assay, PC-3 cells; format: cell-based; conditions: 24 h incubation, mean ± SEM
Description: as §1, §2, §3, §4, §5

human lymphoma Raji = test: MTT cytotoxicity assay, Raji cells; format: cell-based; conditions: 24 h incubation, mean ± SEM
Description: as §1, §2, §3, §4, §5

[3] = system: human breast cancer MCF-7; test: MTT cytotoxicity assay, MCF-7 cells; format: cell-based
Description: as §1, §2, §3, §4, §5

MCF-7 cells [4] = test: Apoptosis profile by flow cytometry (Muse annexin V and dead cell kit); format: cell-based, human; conditions: 10 µM, 48 h
Description: After incubation, culture media were collected; then, cells were washed twice with cold PBS and incubated with trypsin-EDTA solution for 1 min. The cell suspension was washed twice by centrifugated at 250× g for 4 min with cold PBS and used for apoptosis detection by a Muse® annexin V and dead cell kit in accordance with manufacturer’s instructions (Luminex, Austin, TX, USA). Fluorescence was measured with a Muse® cell analyzer (Luminex, Austin, TX, USA), and data were processed by Muse 1.5 analysis software (Luminex, Austin, TX, USA). The proportion of apoptotic cells was expressed as a percentage.

MCF-7 cells [5] = test: Total caspase activity by flow cytometry (Muse multicaspase kit); format: cell-based, human; conditions: 10 µM, 48 h; control 4.7%
Description: The influence of the compounds on the percentage of live MCF-7 cells (caspase−/7-AAD−), live MCF-7 cells with caspase activity (caspase+/7-AAD−), dead MCF-7 cells with caspase activity […] MCF-7 cells (caspase−/7-AAD+) was measured by a Muse® multicaspase kit (Luminex, Austin, TX, USA). The kit utilizes a VAD-peptide derivatized with a fluorescent group called fluorescent-labeled inhibitor of caspases (FLICA). The peptide binds to activated caspases, resulting in a fluorescent signal proportional to the number of active caspases in the cell. Fluorescent dye 7-AAD was used as a dead cell marker in this assay.
After incubation, culture media were collected, and cells were washed twice with cold PBS and incubated in trypsin-EDTA solution for 1 min. The cell suspension was washed twice by centrifugation at 250× g for 4 min with cold PBS and then used for caspase activity detection by a Muse® multicaspase kit (caspases 1, 3, 4, 5, 6, 7, 8, and 9) in accordance with manufacturer’s instructions (Luminex, Austin, TX, USA). Fluorescence was measured with a Muse® cell analyzer (Luminex, Austin, TX, USA), and data were processed by Muse 1.5 analysis software (Luminex, Austin, TX, USA).

MCF-7 cells [6] = test: Cell cycle analysis by flow cytometry (propidium iodide); format: cell-based, human; conditions: 10 µM, 48 h
Description: After incubation, cells were trypsinized, harvested, washed with PBS, and fixed with ice-cold 70% ethanol in a dropwise manner prior to storage at −20 °C overnight. The cells were then washed with PBS, incubated with 200 μg/mL RNAse (PanReac, AppliChem, Darmstadt, Germany) and 20 μg/mL of propidium iodide (Sigma-Aldrich, St. Louis, MO, USA) for 30 min at 37 °C, and the DNA content was analyzed with a Muse® cell analyzer (Luminex, Austin, TX, USA). The data were processed by Muse 1.5 analysis software (Luminex, Austin, TX, USA). The proportion of cells in each phase of the cell cycle was expressed as a percentage.

[7] = system: H9c2, C6, PC-3, Raji and MCF-7 cells; test: MTT cytotoxicity, summary statements over several cell lines; format: cell-based; conditions: 24 h, range over both compounds and three cell lines
Description: as §3, §4, §5

[8] = system: human leukemia HL-60 cells; design: method as in PMID 19769341; conditions: read-out: IC50, HL-60 cell viability; cited from earlier work
[9] = system: human lung cancer A549 cells; design: method as in PMID 19769341; conditions: cited from earlier work
lymphoma L5178Y = system: lymphoma L5178Y; design: method as in PMID 19778087; conditions: cited from earlier work
PC 12 = system: PC 12; design: method as in PMID 19778087; conditions: cited from earlier work
HeLa cells = system: HeLa cells; design: method as in PMID 19778087; conditions: cited from earlier work
PTP1B = target: PTP1B; design: method as in earlier work; conditions: cell-free assay; cited from earlier work
SHP2 = target: SHP2; design: method as in earlier work; conditions: cell-free assay; cited from earlier work
[10] = system: murine leukemia P388 cells; design: method as in PMID 21628915; conditions: read-out: IC50, P388 cell viability; cited from earlier work
[11] = system: Ceratobasidium cornigerum; design: method as in PMID 32605151; conditions: cited from earlier work
Edwardsiella tarda = system: Edwardsiella tarda; design: method as in PMID 32605151; conditions: cited from earlier work
[12] = system: human histiocytic lymphoma U937 cell line; design: method as in PMID 27936301; conditions: cited from earlier work
[13] = Homo sapiens, MCF7, 24 h, 24 h incubation, mean ± SEM, read-out: IC50, MCF-7

## CC1(C)CCC[C@@]2(C)[C@H]1[C@H](OC(=O)/C=C/C=C/C=O)C=C1COC(=O)[C@@]12O [Compound 9, ustusolate E]
[1]; Rattus norvegicus, H9c2, 24 h
  IC50: 66.9 ± 3 µM
Rat glioblastoma C6; Rattus norvegicus, C6, 24 h
  IC50: 54.3 ± 3.3 µM
[2]; Homo sapiens, PC-3, 24 h
  IC50: 50.1 ± 1.8 µM
Human lymphoma Raji; Homo sapiens, Raji, 24 h
  IC50: 88.1 ± 1.3 µM
[3]; 10 µM, 48 h
  decrease in MCF-7 cell viability: ~50%
[3]; 48 h incubation, concentrations up to 10 µM, read-out: IC50, MCF-7 cell viability, prolonged incubation
  IC50: 10.1 ± 0.5 µM
[3]; [13]
  IC50: 57.8 ± 0.5 µM
[3]; Homo sapiens, MCF7, 48 h, 48 h incubation, concentrations up to 10 µM, read-out: IC50, MCF-7 cell viability, prolonged incubation
  IC50: 10 µM
MCF-7 cells [4]; control 1.7%
  amount of apoptotic cells (early and late): 6.8%
MCF-7 cells [4]; control 98.6%
  amount of living cells: 94.1%
MCF-7 cells [5]
  percentage of cells exhibiting caspase activity (living and 7-AAD-labeled): 12.4%
MCF-7 cells [6]; control 5.4%
  subG0 cells: 24.7%
MCF-7 cells [6]; relative to control
  decrease in the percentage of cells in the S phase: 41.2%
  increase of the percentage of cells in the G2/M phase: 67.3%
  reduction of the percentage of cells in the G0/G1 phase: 33.3%
MCF-7 cells [6]; versus control
  increase of the subG0 population of cells: 4.6 times
[7]
  IC50: 54.3 to 88.1 µM
[8]
  IC50: 8 µM
[9]
  toxicity against A549 cells: nontoxic
Lymphoma L5178Y
  IC50: 1.6 µM
PC 12
  IC50: 19.3 µM
HeLa cells
  IC50: 15.8 µM
PTP1B
  IC50, PTP1B enzyme activity: 50 µg/mL (≈ 134 µM)
SHP2
  IC50, SHP2 enzyme activity: 40 µg/mL (≈ 107 µM)

## CC(O)C(=O)/C=C/C=C/C(=O)O[C@@H]1C=C2COC(=O)[C@]2(O)[C@@]2(C)CCCC(C)(C)[C@H]12 (stereo partly shown) [Compound 10, (6-strobilactone A) ester of (E,E)-6-carbonyl-7-hydroxy-2,4-octadienoic acid]
[1]; Rattus norvegicus, H9c2, 24 h
  IC50: 61.9 ± 0.5 µM
Rat glioblastoma C6; Rattus norvegicus, C6, 24 h
  IC50: > 100 µM
[2]; Homo sapiens, PC-3, 24 h
  IC50: 57.8 ± 1.1 µM
Human lymphoma Raji; Homo sapiens, Raji, 24 h
  IC50: 95.3 ± 0.8 µM
[3]; [13]
  IC50: 55.1 ± 1.4 µM
[10]
  IC50: 8.7 µM

## CC(O)C(O)/C=C/C=C/C(=O)O[C@@H]1C=C2COC(=O)[C@]2(O)[C@@]2(C)CCCC(C)(C)[C@H]12 (stereo partly shown) [Compound 11, (6-strobilactone A) esters of (E,E)-6,7-dihydroxy-2,4-octadienoic acid]
[1]; Rattus norvegicus, H9c2, 24 h
  IC50: > 100 µM
Rat glioblastoma C6; Rattus norvegicus, C6, 24 h
  IC50: > 100 µM
[2]; Homo sapiens, PC-3, 24 h
  IC50: > 100 µM
Human lymphoma Raji; Homo sapiens, Raji, 24 h
  IC50: 96.9 ± 1.6 µM
[3]; [13]
  IC50: 83.5 ± 1.7 µM

## CC(O)C(O)/C=C/C=C/C(=O)O[C@@H]1C=C2COC(=O)[C@]2(O)[C@@]2(C)CCCC(C)(C)[C@H]12 (stereo partly shown) [Compound 12, (6-strobilactone A) esters of (E,E)-6,7-dihydroxy-2,4-octadienoic acid]
[1]
  IC50: > 100 µM
Rat glioblastoma C6
  IC50: > 100 µM
[2]
  IC50: > 100 µM
Human lymphoma Raji
  IC50: 97.5 ± 0.9 µM
[3]; 24 h incubation, mean ± SEM, read-out: IC50, MCF-7
  IC50: 81.7 ± 0.9 µM

## C=C(C)[C@H]1[C@H](OC(C)=O)C[C@H](C)[C@@]12CC=C(C)[C@@H](OC(=O)CCCCCCCC=CCC=CCCCCC)C2 [chermebilaene A]
[11]
  MIC, Ceratobasidium cornigerum: 0.5 µg/mL (≈ 0.925 µM)
Edwardsiella tarda
  MIC, Edwardsiella tarda: 0.25 µg/mL (≈ 0.462 µM)

## aluminumneohydroxyaspergillin
[12]
  IC50: 4.2 µM
